# Experimental data published in ChEMBL document CHEMBL5532634, “Oxazolidinone: A promising scaffold for the development of antibacterial drugs” (Eur J Med Chem, 2023).
# Test system: Mycobacterium tuberculosis
# Test: Antimycobacterial activity against multi-drug resistant Mycobacterium tuberculosis assessed as reduction in bacterial growth
# Assay type: functional
structure (smiles),measurement,value
CC(=O)NC[C@H]1CN(c2ccc(N3CCSCC3)c(F)c2)C(=O)O1 [SUTEZOLID],MIC,0.2 µg/mL
